Assays:
[1] = system: LNCap cells; assay: Cell viability assay (CellTiterGlo); assay type: cell-based; settings: Homo sapiens, 144 h, read-out: LNCap (IC50, nM)
[2] = system: T47D cells; assay: Cell viability assay (CellTiterGlo); assay type: cell-based; settings: Homo sapiens, 144 h, read-out: T47D (IC50, nM)
[3] = molecular target: T1, AR (cytosol from LnCaP cells) (Homo sapiens, UniProt P10275, T878A); assay: AR binding assay (3H-R1881 displacement)
T1 sequence (P10275 1-920 T878A): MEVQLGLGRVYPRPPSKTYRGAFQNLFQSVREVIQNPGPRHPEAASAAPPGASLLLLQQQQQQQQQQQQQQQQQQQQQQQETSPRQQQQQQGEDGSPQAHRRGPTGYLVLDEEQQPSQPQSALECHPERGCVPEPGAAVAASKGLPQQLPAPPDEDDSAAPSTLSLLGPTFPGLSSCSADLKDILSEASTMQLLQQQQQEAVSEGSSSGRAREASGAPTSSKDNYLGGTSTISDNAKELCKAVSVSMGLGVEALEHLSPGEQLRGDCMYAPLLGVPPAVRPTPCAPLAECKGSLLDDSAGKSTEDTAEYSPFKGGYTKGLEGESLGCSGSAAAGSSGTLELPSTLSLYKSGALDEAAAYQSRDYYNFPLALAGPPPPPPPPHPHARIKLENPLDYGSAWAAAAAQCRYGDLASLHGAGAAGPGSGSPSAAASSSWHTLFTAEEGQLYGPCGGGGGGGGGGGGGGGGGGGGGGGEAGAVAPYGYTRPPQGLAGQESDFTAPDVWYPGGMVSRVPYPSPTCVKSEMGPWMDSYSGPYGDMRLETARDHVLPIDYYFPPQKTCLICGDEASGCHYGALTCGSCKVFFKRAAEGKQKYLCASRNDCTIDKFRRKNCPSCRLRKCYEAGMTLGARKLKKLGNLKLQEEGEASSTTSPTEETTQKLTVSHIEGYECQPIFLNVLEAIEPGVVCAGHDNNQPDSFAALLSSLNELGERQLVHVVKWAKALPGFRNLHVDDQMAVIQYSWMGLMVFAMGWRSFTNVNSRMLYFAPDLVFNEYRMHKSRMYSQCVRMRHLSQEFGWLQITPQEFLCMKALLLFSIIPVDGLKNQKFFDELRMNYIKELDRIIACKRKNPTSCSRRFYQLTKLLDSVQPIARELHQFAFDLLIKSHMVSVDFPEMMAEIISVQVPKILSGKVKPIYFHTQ
Protocol: The plate was then centrifuged at 3000 rpm for 30 minutes at 4° C.

[4] = molecular target: T2, Progesterone PR-B receptors from human breast carcinoma T47D cells (Homo sapiens, UniProt P06401); assay: PR binding assay ([3H] Progesterone displacement)
T2 sequence (P06401 1-933): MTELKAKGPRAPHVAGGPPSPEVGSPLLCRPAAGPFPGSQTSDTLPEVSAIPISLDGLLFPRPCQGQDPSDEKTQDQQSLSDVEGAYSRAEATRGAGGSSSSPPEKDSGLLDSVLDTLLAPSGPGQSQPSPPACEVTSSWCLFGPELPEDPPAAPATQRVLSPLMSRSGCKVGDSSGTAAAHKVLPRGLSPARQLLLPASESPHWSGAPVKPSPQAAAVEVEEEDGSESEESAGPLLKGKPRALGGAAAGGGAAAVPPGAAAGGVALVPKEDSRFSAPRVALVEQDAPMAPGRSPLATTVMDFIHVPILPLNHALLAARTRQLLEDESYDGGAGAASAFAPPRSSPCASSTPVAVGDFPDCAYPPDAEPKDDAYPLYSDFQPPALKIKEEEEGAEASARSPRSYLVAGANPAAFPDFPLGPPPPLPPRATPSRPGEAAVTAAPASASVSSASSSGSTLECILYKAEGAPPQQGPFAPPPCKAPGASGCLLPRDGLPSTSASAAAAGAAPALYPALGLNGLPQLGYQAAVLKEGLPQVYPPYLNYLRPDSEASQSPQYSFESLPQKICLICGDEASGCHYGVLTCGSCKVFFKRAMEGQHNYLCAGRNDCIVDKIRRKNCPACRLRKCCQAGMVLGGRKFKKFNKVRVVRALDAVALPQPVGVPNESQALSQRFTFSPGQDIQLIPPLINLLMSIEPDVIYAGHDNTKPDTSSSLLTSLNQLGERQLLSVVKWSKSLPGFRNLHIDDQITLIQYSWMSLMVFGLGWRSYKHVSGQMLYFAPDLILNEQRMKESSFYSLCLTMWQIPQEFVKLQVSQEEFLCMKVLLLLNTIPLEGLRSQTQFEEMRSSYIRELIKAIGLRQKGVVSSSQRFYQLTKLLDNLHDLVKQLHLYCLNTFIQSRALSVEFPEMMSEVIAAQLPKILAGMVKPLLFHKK

[5] = molecular target: T3, Progesterone Receptor (PR)-LBD and coactivator peptide (Homo sapiens, UniProt P06401); assay: PR coactivator antagonist assay; settings: 2.5 nM PR-LBD, 10 nM progesterone-induced fluorescence response
T3 sequence (P06401 679-913 limits assumed): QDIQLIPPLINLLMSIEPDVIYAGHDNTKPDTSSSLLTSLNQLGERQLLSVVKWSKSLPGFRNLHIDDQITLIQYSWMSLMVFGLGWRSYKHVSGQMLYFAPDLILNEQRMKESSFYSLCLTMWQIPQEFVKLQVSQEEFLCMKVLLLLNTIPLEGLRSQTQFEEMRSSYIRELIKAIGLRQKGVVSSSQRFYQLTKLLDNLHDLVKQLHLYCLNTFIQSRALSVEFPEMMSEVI

[6] = molecular target: T4, GR (cytosol from IM-9 cells) (Homo sapiens, UniProt P04150); assay: GR binding assay (3H-Dexamethasone displacement)
T4 sequence (P04150 1-777): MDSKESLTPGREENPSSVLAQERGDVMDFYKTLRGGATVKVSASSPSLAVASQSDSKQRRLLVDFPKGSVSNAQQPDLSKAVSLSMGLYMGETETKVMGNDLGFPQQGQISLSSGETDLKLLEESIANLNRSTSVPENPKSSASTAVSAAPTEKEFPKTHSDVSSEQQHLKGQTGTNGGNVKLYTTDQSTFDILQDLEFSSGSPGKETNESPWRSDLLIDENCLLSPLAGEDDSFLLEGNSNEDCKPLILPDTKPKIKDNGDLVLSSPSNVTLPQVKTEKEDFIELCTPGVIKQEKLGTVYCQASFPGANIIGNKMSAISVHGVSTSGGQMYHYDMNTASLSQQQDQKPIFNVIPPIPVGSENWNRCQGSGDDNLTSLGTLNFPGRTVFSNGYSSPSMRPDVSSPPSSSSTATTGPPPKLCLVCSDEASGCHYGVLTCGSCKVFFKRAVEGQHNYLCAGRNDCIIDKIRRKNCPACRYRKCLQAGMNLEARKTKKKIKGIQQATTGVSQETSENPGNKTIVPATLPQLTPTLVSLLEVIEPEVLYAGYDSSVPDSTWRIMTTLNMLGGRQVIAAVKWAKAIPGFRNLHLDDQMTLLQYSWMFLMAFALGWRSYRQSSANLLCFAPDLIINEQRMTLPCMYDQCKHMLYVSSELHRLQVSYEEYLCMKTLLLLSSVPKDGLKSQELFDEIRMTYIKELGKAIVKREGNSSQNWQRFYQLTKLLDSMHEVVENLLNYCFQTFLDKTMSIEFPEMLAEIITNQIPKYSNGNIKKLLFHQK

[7] = system: IEC6 cells; assay: Cell viability assay (CellTiterGlo); settings: Rattus norvegicus, IEC-6, 144 h, read-out: IEC-6 (IC50, nM)
[8] = molecular target: T5, ligand binding domain of the glucocorticoid receptor (HEK293 cells stably expressing) (Homo sapiens, UniProt P04150); assay: GR antagonism assay (luciferase reporter)
T5 sequence (P04150 524-758 limits assumed): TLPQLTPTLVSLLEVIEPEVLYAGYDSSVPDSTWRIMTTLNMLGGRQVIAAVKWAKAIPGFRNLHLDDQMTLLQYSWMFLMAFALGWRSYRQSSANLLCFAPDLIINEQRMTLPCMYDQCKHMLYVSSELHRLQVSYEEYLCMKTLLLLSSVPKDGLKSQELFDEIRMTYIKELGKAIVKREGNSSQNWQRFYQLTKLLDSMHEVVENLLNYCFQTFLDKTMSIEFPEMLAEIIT

SMILES	IC50 [1] [nM]	IC50 [2] [nM]	IC50 [3] [nM]	IC50 [4] [nM]	PR antagonism [5]	IC50 [6] [nM]	IC50 [7] [nM]	IC50 [8] [nM]
CC[C@@]1(O)C(=O)OCc2c1cc1n(c2=O)Cc2cc3c(CN(C)C)c(OC(=O)N4C5CC4CN(CCCCCCN(C)c4ccc([C@H]6C[C@@]7(C)[C@@H](CC[C@]7(OC(C)=O)C(C)=O)[C@@H]7CCC8=CC(=O)CCC8=C76)cc4)C5)ccc3nc2-1 [Compound 3, (S)-10-((Dimethylamino)methyl)-4-ethyl-4-hydroxy-3,14-dioxo-3,4,12,14-tetrahydro-1H-pyrano[3′,4′:6,7]indolizino[1,2-b]quinolin-9-yl 3-(6-((4-((8S,11R,13S,14S,17R)-17-acetoxy-17-acetyl-13-methyl-3-oxo-2,3,6,7,8,11,12,13,14,15,16,17-dodecahydro-1H-cyclopenta[a]phenanthren-11-yl)phenyl)(methyl)amino)hexyl)-3,6-diazabicyclo[3.1.1]heptane-6-carboxylate]	101 to 1000	10 to 100	10 to 100	< 10	a (IC50 =< 10 nM)	< 10	> 1000	10 to 100
CC[C@@]1(O)C(=O)OCc2c1cc1n(c2=O)Cc2cc3c(CN4CCN(C)CC4)c(OC(=O)N4CCN(CCCCCCN(C)c5ccc([C@H]6C[C@@]7(C)[C@@H](CC[C@]7(OC(C)=O)C(C)=O)[C@@H]7CCC8=CC(=O)CCC8=C76)cc5)CC4)ccc3nc2-1 [Compound 5, (S)-4-Ethyl-4-hydroxy-10-((4-methylpiperazin-1-yl)methyl)-3,14-dioxo-3,4,12,14-tetrahydro-1H-pyrano[3′,4′:6,7]indolizino[1,2-b]quinolin-9-yl 4-(6-((4-((8S,11R,13S,14S,17R)-17-acetoxy-17-acetyl-13-methyl-3-oxo-2,3,6,7,8,11,12,13,14,15,16,17-dodecahydro-1H-cyclopenta[a]phenanthren-11-yl)phenyl)(methyl)amino)hexyl)piperazine-1-carboxylate]	101 to 1000	101 to 1000	10 to 100	< 10	a (IC50 =< 10 nM)	< 10	> 1000	10 to 100
CC[C@@]1(O)C(=O)OCc2c1cc1n(c2=O)Cc2cc3c(CN(C)C)c(OC(=O)N4CCN(CCCCCCCN(C)c5ccc([C@H]6C[C@@]7(C)[C@@H](CC[C@]7(OC(C)=O)C(C)=O)[C@@H]7CCC8=CC(=O)CCC8=C76)cc5)CC4)ccc3nc2-1 [Compound 6, (S)-10-((Dimethylamino)methyl)-4-ethyl-4-hydroxy-3,14-dioxo-3,4,12,14-tetrahydro-1H-pyrano[3′,4′:6,7]indolizino[1,2-b]quinolin-9-yl 4-(7-((4-((8S,11R,13S,14S,17R)-17-acetoxy-17-acetyl-13-methyl-3-oxo-2,3,6,7,8,11,12,13,14,15,16,17-dodecahydro-1H-cyclopenta[a]phenanthren-11-yl)phenyl)(methyl)amino)heptyl)piperazine-1-carboxylate]	101 to 1000	10 to 100	10 to 100	< 10	a (IC50 =< 10 nM)	< 10	> 1000	10 to 100
CC[C@@]1(O)C(=O)OCc2c1cc1n(c2=O)Cc2cc3c(CN(C)C)c(OC(=O)N4CCN(CCCCCCCCN(C)c5ccc([C@H]6C[C@@]7(C)[C@@H](CC[C@]7(OC(C)=O)C(C)=O)[C@@H]7CCC8=CC(=O)CCC8=C76)cc5)CC4)ccc3nc2-1 [Compound 7, (S)-10-((Dimethylamino)methyl)-4-ethyl-4-hydroxy-3,14-dioxo-3,4,12,14-tetrahydro-1H-pyrano[3′,4′:6,7]indolizino[1,2-b]quinolin-9-yl 4-(8-((4-((8S,11R,13S,14S,17R)-17-acetoxy-17-acetyl-13-methyl-3-oxo-2,3,6,7,8,11,12,13,14,15,16,17-dodecahydro-1H-cyclopenta[a]phenanthren-11-yl)phenyl)(methyl)amino)octyl)piperazine-1-carboxylate]	101 to 1000	101 to 1000	10 to 100	< 10	a (IC50 =< 10 nM)	< 10	> 1000	10 to 100
